This is an account of results in US20130216634A1, “Herbal Supplement Prepared From Pelargonium Citronellum” (priority 2011, published 2013).

Where two headings read alike, the source gives them in different places.

Series [1] relates to 25 different bacterial species, 20 different Listeria monocytogenes cultivars, three different fungi. Conditions: singly or in combination, in the percentages listed by the ISO; cited from earlier work.
Series [2] deals with adult human. The series is described as follows: LD50, adult human (equivalent / reported). The following applies: 143 lb (65 kg) adult human.
In series [3] the test system is mouse. Conditions: cited from earlier work.

The term LD50 denotes the dose at which mortality reaches 50%.

With `CC(C)=CCCC(C)CCO` (stereo not drawn) [citronellol], the “Bioactivity (antibacterial, antifungal, anti-oxidant)” value in series [1] is “very potent”.
`CC(C)=CCC/C(C)=C/CO` [geraniol]: the “Bioactivity (antibacterial, antifungal, anti-oxidant)” value in series [1] is “very potent”.
`CCC(C)CC(C)N` (stereo not drawn) [methylhexaneamine, Methylhexaneamine]: the figures for the “LD50 equivalent for adult human” value in series [2] (intraperitoneally injected) and in series [2] (intravenously injected) were 978 milligrams and 206 mg, respectively. For the same compound, the figures for the LD50 in series [3] (intraperitoneal administration) and in series [3] (intravenous) were 185 mg/kg and 39 mg/kg, respectively.
